# Data reported in patent US20130034597A1, “ORALLY BIOAVAILABLE PEPTIDE DRUG COMPOSITIONS AND METHODS THEREOF” (AEGIS THERAPEUTICS LLC, priority 2011, published 2013).
# Positions of bridges follow the written chain, without caps; N, C: chain ends. Non-standard residues stand in square brackets, D forms with d. Residues, ends and D or L forms follow the SMILES beside them. d2Nal = N[C@H](Cc1ccc2ccccc2c1)C(=O)O
# Tests used:
# [1] = intranasal delivery; cited from earlier work
# [2] = Maximum water solubility of TEEE; format: physicochemical
# Method: The compound described is a selective IL-23 receptor antagonist peptide comprising D-amino acids with the formula cyclo-D-[…] (SEQ ID NO: 3), where any amino acid is a D-amino acid, MW: ca. 1039, hereafter designated TEEE, supplied by Allostera Pharma as a dry powder, and is formulated for intravenous at 0.02 and 0.2 mg/mL in sterile saline by dilution of an initial stock prepared at 2 mg/mL. Additionally, 4 different formulations of dry TEEE are prepared in gelatin capsules. For each type of dry formulation 10 capsules are prepared to contain enough test article in a way to deliver ca 2.5, 5.0 or 10 mg/kg. […] Solutions and capsules are stored at ca 4° C. upon until dose administration. The intravenous formulation is kept at room temperature pending dose administration. The final appearance of the intravenous formulations consists of clear solutions.
# [3] = Clinical signs during the TEEE pharmacokinetic study; format: in vivo, Male Sprague-Dawley rats; conditions: oral (2.5-10 mg/kg capsules) or intravenous (0.1, 1 mg/kg) administration, rats
# From the text: Male Sprague-Dawley rats are ca 8-9 week old at onset of treatment (weight at onset of treatment, 348-398 g). Animals are allocated into groups of 3 rats/group. Immediately following arrival, animals are uniquely identified via an eartag. Animals are purchased from Charles River Canada (St-Constant, Canada). Following an examination by a qualified In-Life Specialist (including body weight determination), animals are acclimated to the testing facilities for ca 72 hr prior to test article administration. Room conditions are: temperature ca 20° C., humidity ca 50%. Animals are housed in solid bottom polycarbonate cages equipped with a filter top to avoid contamination, fed with standard certified rodent food (brand and lot no. to be documented in the raw data). The animals had continuous access to RO/UV water, via bottles. All rats are administered the compounds intravenously (Groups 1 and 2) in a jugular vein under light isoflurane anesthesia or orally by capsule (one per animal) using a specially designed capsule delivery tube (Groups 3-14). The dose volume is 5.0 ml/kg for groups 1 and 2 and one capsule/animal for Groups 3 to 14. Prior to dosing, each animal is weighed and the weight recorded. […] Plasma concentrations of each compound are determined using an LCMS assay (non-GLP) with an analytical range of ca 25-1000 ng/mL. […]
# [4] = target: somatostatin receptor (SSTR) subtype 2 (Homo sapiens, UniProt P30874); conditions: cited from earlier work
# Sequence of somatostatin receptor (SSTR) subtype 2 (P30874 whole entry): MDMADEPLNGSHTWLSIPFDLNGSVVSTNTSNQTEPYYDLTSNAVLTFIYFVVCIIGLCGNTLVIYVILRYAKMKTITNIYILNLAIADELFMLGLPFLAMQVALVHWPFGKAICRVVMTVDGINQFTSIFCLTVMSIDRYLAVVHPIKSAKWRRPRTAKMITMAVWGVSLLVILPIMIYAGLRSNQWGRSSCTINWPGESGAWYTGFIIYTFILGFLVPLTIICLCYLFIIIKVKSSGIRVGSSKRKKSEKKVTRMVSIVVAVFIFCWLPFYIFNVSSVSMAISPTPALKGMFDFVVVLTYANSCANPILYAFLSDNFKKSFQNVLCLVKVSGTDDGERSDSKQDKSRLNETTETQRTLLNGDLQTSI
molecule,measurement,setting,value
calcitonin,average bioavailability,[1],about 3%
cyclo-D-TEEEQQYL (cyclo([dT][dE][dE][dE][dQ][dQ][dY][dL]); SMILES CC(C)C[C@H]1NC(=O)[C@@H](Cc2ccc(O)cc2)NC(=O)[C@@H](CCC(N)=O)NC(=O)[C@@H](CCC(N)=O)NC(=O)[C@@H](CCC(=O)O)NC(=O)[C@@H](CCC(=O)O)NC(=O)[C@@H](CCC(=O)O)NC(=O)[C@@H]([C@H](C)O)NC1=O),maximum water solubility,[2],approximately 10 mg/mL
same,clinical signs,[3],No clinical signs
"CC(C)[C@@H]1NC(=O)[C@H](CCCCN)NC(=O)[C@@H](Cc2c[nH]c3ccccc23)NC(=O)[C@H](Cc2ccc(O)cc2)NC(=O)[C@H](NC(=O)[C@H](N)Cc2ccc3ccccc3c2)CSSC[C@H](C(=O)N[C@H](C(N)=O)[C@@H](C)O)NC1=O [lanreotide, (4S,7S,10S,13R,16S,19S)-10-(4-aminobutyl)-19-[[(2R)-2-amino-3-naphthalen-2-yl-propanoyl]amino]-N-[(1S,2R)-1-carbamoyl-2-hydroxy-propyl]-16-[(4-hydroxyphenyl)methyl]-13-(1H-indol-3-ylmethyl)-6,9,12,15,18-pentaoxo-7-propan-2-yl-1,2-dithia-5,8,11,14,17-pentazacycloicosane-4-carboxamide] (H-[d2Nal][dC]Y[dW]KV[dC]T-NH2; disulfide 2-7)",binding affinity,[4],high
